Legend:
[1] = system: late-stage solid tumors or hematologic malignancies; test: Phase I clinical study, open-label dose escalation, intravenous; format: in vivo, patients
Procedure: An open-label, dose escalation study of intravenous N-(3-amino-propyl)-3-chloro-N—[(R)-1-(7-chloro-4-oxo-3-phenylamino-3,4-dihydro-quinazolin-2-yl)-but-3-ynyl]-2-fluoro-benzamide was performed. The title compound was administered to patients with late-stage solid tumors or hematologic malignancies. […] There were 3-6 patients per cohort.

HsEg5 = target: T1, HsEg5 (Homo sapiens, UniProt P52732); test: Fluorescence detection of HsEg5 ATPase activity (ADP Quest, automated); format: biochemical
T1 sequence (P52732 18-359 limits assumed): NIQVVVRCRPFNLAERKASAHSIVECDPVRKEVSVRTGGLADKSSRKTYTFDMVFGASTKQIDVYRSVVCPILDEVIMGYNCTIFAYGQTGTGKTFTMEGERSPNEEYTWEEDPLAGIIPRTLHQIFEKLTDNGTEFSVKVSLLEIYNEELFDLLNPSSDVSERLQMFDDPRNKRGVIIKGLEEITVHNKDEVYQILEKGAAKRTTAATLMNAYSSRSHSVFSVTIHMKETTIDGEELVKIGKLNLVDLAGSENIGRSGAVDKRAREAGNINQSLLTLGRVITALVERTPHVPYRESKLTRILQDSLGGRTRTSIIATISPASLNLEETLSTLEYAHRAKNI
Procedure, shortened: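 Microtubule-activated HsEg5 motor fragment (10 nM, 500 nM MTs) preincubated 10 min with compound, then 20 μM ATP for 10 min at room temperature in Pipes pH 7.0, MgCl2, paclitaxel, 0.3% DMSO. ADP detected via coupled-enzyme resorufin fluorescence; IC50 over 100 μM–5 nM.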

PACA2 tumor xenografts = test: PACA2 tumor xenograft efficacy study (Example 106); format: in vivo, mice
Procedure: Six-week old female athymic nude mice (NCR nu/nu; Charles River Laboratory, Wilmington, Mass.) were acclimated to the animal housing facility for at least 1 week before the study. Efficacy studies were performed in athymic mice bearing PACA2 tumor xenografts to determine the effect of compound on tumor growth. Tumor cells (1×10^7 PACA2 cells/animal) were inoculated subcutaneously on day 0. Tumor dimensions were measured by a digital microcaliper, and tumor volumes were calculated as length×width^2/2. […] Results are expressed as mean tumor volume±SE. To assess differences in tumor size between groups, a Mann-Whitney non-parametric t test was performed and significance was assessed for p values <0.05. Tumor size was evaluated periodically during treatment at the indicated days post-inoculation. Results are represented as the mean of tumor volume in mm^3±SE of several tumors (n=10) in function of the treatment period. […] (See FIG. 1A).

HT29 xenograft = test: Xenograft model; format: in vivo, mice; details: HT29, Colon; procedures and dosages of Examples 106-108
SK-OV-3 xenograft = test: Xenograft model; format: in vivo, mice; details: SK-OV-3, Ovary; procedures and dosages of Examples 106-108
[2] = patients with the tumor types listed in Table 5

C#CC[C@H](c1nc2cc(Cl)ccc2c(=O)n1Nc1ccccc1)N(CCCN)C(=O)c1cccc(Cl)c1F [Compound 1, N-(3-Amino-propyl)-3-chloro-N—[(R)-1-(7-chloro-4-oxo-3-phenylamino-3,4-dihydro-quinazolin-2-yl)-but-3-ynyl]-2-fluoro-benzamide]
Duration on Study ([1]; Cohort 1, 10 mg/m^2 intravenous, Cholangiocarcinoma (bile duct)): 24 weeks | Duration on Study ([1]; Cohort 2, 20 mg/m^2 intravenous, Colorectal cancer): 17 weeks | Duration on Study ([1]; Cohort 2, 20 mg/m^2 intravenous, Liposarcoma (soft tissue)): 24 weeks | Duration on Study ([1]; Cohort 4, 53 mg/m^2 intravenous, Leiomyosarcoma (smooth muscle)): 39 weeks | Duration on Study ([1]; Cohort 5, 70 mg/m^2 intravenous, Carcinoid): 24 weeks | Duration on Study ([1]; Cohort 6, 100 mg/m^2 intravenous, Colorectal cancer): 19 weeks | Duration on Study ([1]; Cohort 9, 280 mg/m^2 intravenous, Endocervical cancer): 36 weeks | Duration on Study ([1]; Cohort 9, 280 mg/m^2 intravenous, Malignant Thymoma, patient still on study (active)): 24 (active) weeks | response ([1]; endocervical cancer patient, before withdrawing consent): minor response | disease course ([1]; leiomyosarcoma patient, stayed on study afterwards): tumor progression at cycle 6 | disease status [1, 2]: stable diseases for an extended period | time patients stayed on study [1, 2]: greater than 16 weeks | IC50 (HsEg5): 28 nM | tumor growth compared to the vehicle control group (PACA2 tumor xenografts; 6.25 or 12.5 mg/kg intraperitoneally 3x weekly for 4 weeks, tumors ~100 mm^3 at start, FIG. 1A): Significant reductions in tumor growth | tolerability of doses (PACA2 tumor xenografts; 6.25 or 12.5 mg/kg intraperitoneally 3x weekly, PACA2 xenograft mice): well-tolerated | Xenograft Outcome (approximate percent growth inhibition) (HT29 xenograft): ~30% | Xenograft Outcome (approximate percent growth inhibition) (SK-OV-3 xenograft): ~50%

From US20110217300A1, “Quinazolinone Compounds and Methods of Use Thereof” (priority 2007, published 2011)
